In patent publication US12583866B2, “Pyrido[2,3-b][1,4]oxazines or tetrahydropyrido[2,3-b][1,4]oxazepines as IAP antagonists” (BEIGENE, LTD., priority 2020, dated 2026):
Where a name gives a salt, the structure may show the parent alone.

Legend:
[1] = molecular target: T1, recombinant human XIAP-BIR3 protein (Homo sapiens, UniProt P98170); test: Recombinant human XIAP-BIR3 biochemical assay (HTRF, peptide displacement); settings: 3.7 nM XIAP-BIR3, 7.6 nM AbuRPF-K(5-Fam)-NH2 peptide, read-out: Protein binding IC50 (nM) XIAP
T1 construct: recombinant human XIAP-BIR3 protein; purchased Reaction biology APT-11-374
T1 sequence (P98170 241-356 limits assumed): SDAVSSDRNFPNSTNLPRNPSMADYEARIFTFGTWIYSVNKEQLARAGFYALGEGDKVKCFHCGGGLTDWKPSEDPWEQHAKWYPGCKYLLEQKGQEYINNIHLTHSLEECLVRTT
Procedure, shortened: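 3.7 nM His-tagged XIAP-BIR3 was preincubated 1 h RT with compound (top 10 µM, 4-fold, 10 points) in 20 mM HEPES pH 7.5, 50 mM NaCl, 0.005% Tween-20, 1 mM DTT. 7.6 nM AbuRPF-K(5-Fam)-NH2 peptide was then added, followed by anti-6His Tb cryptate, 1 h each. HTRF 520/490 nm ratio; four-parameter logistic IC50.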

[2] = molecular target: T2, recombinant human cIAP1-BIR3 protein (Homo sapiens, UniProt Q13490); test: Recombinant human c-IAP1-BIR3 biochemical assay (HTRF, peptide displacement); settings: 1.2 nM cIAP1-BIR3, 3 nM AbuRPF-K(5-Fam)-NH2 peptide, read-out: Protein binding IC50 (nM) c-IAP1
T2 construct: recombinant human cIAP1-BIR3 protein; purchased Reaction biology APT-11-370
T2 sequence (Q13490 253-363 limits assumed): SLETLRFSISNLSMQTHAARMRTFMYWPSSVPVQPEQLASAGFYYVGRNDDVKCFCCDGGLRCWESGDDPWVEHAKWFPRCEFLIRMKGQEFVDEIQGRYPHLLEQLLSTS
Procedure, shortened: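 1.2 nM cIAP1-BIR3 preincubated 1 h at room temperature with compound (10 points, 4-fold, top 10 uM) in 20 mM HEPES pH 7.5, 50 mM NaCl, 1 mM DTT; 3 nM AbuRPF-K(5-Fam)-NH2 then added for 1 h, then anti-6His Tb cryptate for 1 h. 520/490 nm ratio; IC50 by four-parameter logistic fit.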

[3] = molecular target: T3, recombinant human cIAP2-BIR3 protein (Homo sapiens, UniProt Q13489); test: Recombinant human c-IAP2-BIR3 biochemical assay (HTRF, peptide displacement); settings: 3.7 nM cIAP2-BIR3, 3.7 nM AbuRPF-K(5-Fam)-NH2 peptide, read-out: Protein binding IC50 (nM) c-IAP2
T3 construct: recombinant human cIAP2-BIR3 protein; purchased Reaction biology APT-11-372
T3 sequence (Q13489 238-349 limits assumed): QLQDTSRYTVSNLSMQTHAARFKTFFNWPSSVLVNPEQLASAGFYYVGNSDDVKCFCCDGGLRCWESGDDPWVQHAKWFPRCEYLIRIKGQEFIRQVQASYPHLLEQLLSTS
Procedure, shortened: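 3.7 nM protein pre-incubated 1 h at room temperature with compounds (top 10 uM, 4-fold, 10 points) in 20 mM HEPES pH 7.5, 50 mM NaCl, 0.005% Tween-20, 1 mM DTT. Then 3.7 nM AbuRPF-K(5-Fam)-NH2 for 1 h, then anti-6His Tb cryptate 1 h. IC50 from 520/490 nm HTRF ratio, four-parameter logistic fit.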

Structure (SMILES)	IC50 [1] [nM]	IC50 [2] [nM]	IC50 [3] [nM]
CC1CN(C(=O)CN2C[C@@H](C)NC[C@@H]2CN2CCOC[C@H]2C)c2cc(Cc3ccc(F)cc3)cnc2O1 (stereo partly drawn) [Compound 10, 1-(7-(4-fluorobenzyl)-3-methyl-2,3-dihydro-1H-pyrido[2,3-b][1,4]oxazin-1-yl)-2-((2R,5R)-5-methyl-2-(((R)-3-methylmorpholino)methyl)piperazin-1-yl)ethan-1-one]	264	14	52
C[C@@H]1CN(CC(=O)N2c3cc(Cc4ccc(F)cc4)c(CO)nc3OC[C@@H]2C)[C@@H](CN2CCOC[C@H]2C(F)(F)F)CN1 [Compound 91A, 1-((S)-7-(4-fluorobenzyl)-6-(hydroxymethyl)-2-methyl-2,3-dihydro-1H-pyrido[2,3-b][1,4]oxazin-1-yl)-2-((2R,5R)-5-methyl-2-(((S)-3-(trifluoromethyl)morpholino)methyl)piperazin-1-yl)ethan-1-one]	30	0.72	1.25
C[C@@H]1CN(CC(=O)N2c3cc(Cc4ccc(F)cc4)c(CO)nc3OC[C@@H]2C)[C@@H](CN2[C@H](C)CN(C)C[C@H]2C)CN1 [Compound 105, 1-((S)-7-(4-fluorobenzyl)-6-(hydroxymethyl)-2-methyl-2,3-dihydro-1H-pyrido[2,3-b][1,4]oxazin-1-yl)-2-((2R,5R)-5-methyl-2-(((2R,6R)-2,4,6-trimethylpiperazin-1-yl)methyl)piperazin-1-yl)ethan-1-one]	11.3	0.28	0.35
C[C@@H]1CN(CC(=O)N2c3cc(Cc4ccc(F)cc4)cnc3OC[C@@H]2C)[C@@H](CN2CCOC[C@H]2C)CN1 [Compound 19A, 1-((S)-7-(4-fluorobenzyl)-2-methyl-2,3-dihydro-1H-pyrido[2,3-b][1,4]oxazin-1-yl)-2-((2R,5R)-5-methyl-2-(((R)-3-methylmorpholino)methyl)piperazin-1-yl)ethan-1-one]	2.7	0.13	0.25
C[C@@H]1CN(CC(=O)N2c3cc(Cc4ccc(F)cc4)c(CO)nc3OC[C@@H]2C)[C@@H](CN2C[C@H](C)OC[C@H]2C)CN1 [Compound 49]	3.6	0.3	0.48
COC[C@H]1COc2ncc(Cc3ccc(F)cc3)cc2N1C(=O)CN1C[C@@H](C)NC[C@@H]1CN1CCOC[C@H]1C [Compound 35, 1-((S)-7-(4-fluorobenzyl)-2-(methoxymethyl)-2,3-dihydro-1H-pyrido[2,3-b][1,4]oxazin-1-yl)-2-((2R,5R)-5-methyl-2-(((R)-3-methylmorpholino)methyl)piperazin-1-yl)ethan-1-one]	46	0.33	0.99
C[C@@H]1CN(CC(=O)N2CCOc3nc(O)c(Cc4ccc(F)cc4)cc32)[C@@H](CN2CCOC[C@H]2C)CN1 [Compound 9, 1-(7-(4-fluorobenzyl)-6-hydroxy-2,3-dihydro-1H-pyrido[2,3-b][1,4]oxazin-1-yl)-2-((2R,5R)-5-methyl-2-(((R)-3-methylmorpholino)methyl)piperazin-1-yl)ethan-1-one]	10	0.85	1.3
C[C@@H]1CN(CC(=O)N2CCOc3nc(C(F)(F)F)c(Cc4ccc(F)cc4)cc32)[C@@H](CN2CCOC[C@H]2C)CN1 [Compound 7, 1-(7-(4-fluorobenzyl)-6-(trifluoromethyl)-2,3-dihydro-1H-pyrido[2,3-b][1,4]oxazin-1-yl)-2-((2R,5R)-5-methyl-2-(((R)-3-methylmorpholino)methyl)piperazin-1-yl)ethan-1-one]	99	1.3	6.8
C[C@@H]1CN(CC(=O)N2CCOc3nc(C4CC4)c(Cc4ccc(F)cc4)cc32)[C@@H](CN2CCOC[C@H]2C)CN1 [Compound 6, 1-(6-cyclopropyl-7-(4-fluorobenzyl)-2,3-dihydro-1H-pyrido[2,3-b][1,4]oxazin-1-yl)-2-((2R,5R)-5-methyl-2-(((R)-3-methylmorpholino)methyl)piperazin-1-yl)ethan-1-one]	61	1.1	3
C[C@@H]1CN(CC(=O)N2CCOc3ncc(Cc4ccc(F)cc4)cc32)[C@@H](CN2CCOC[C@H]2C)CN1 [Compound 2, 1-(7-(4-fluorobenzyl)-2,3-dihydro-1H-pyrido[2,3-b][1,4]oxazin-1-yl)-2-((2R,5R)-5-methyl-2-(((R)-3-methylmorpholino)methyl)piperazin-1-yl)ethan-1-one formate]	24	0.9	2.5
C[C@@H]1CN(CC(=O)N2CCOc3nc(C#N)c(Cc4ccc(F)cc4)cc32)[C@@H](CN2CCOC[C@H]2C)CN1 [Compound 1, 7-(4-fluorobenzyl)-1-(2-((2R,5R)-5-methyl-2-(((R)-3-methylmorpholino)methyl)piperazin-1-yl)acetyl)-2,3-dihydro-1H-pyrido[2,3-b][1,4]oxazine-6-carbonitrile formate]	26	0.5	0.9
COC[C@@H]1COCCN1C[C@H]1CN[C@H](C)CN1CC(=O)N1c2cc(Cc3ccc(F)cc3)c(CO)nc2OC[C@@H]1C [Compound 52, 1-((S)-7-(4-fluorobenzyl)-6-(hydroxymethyl)-2-methyl-2,3-dihydro-1H-pyrido[2,3-b][1,4]oxazin-1-yl)-2-((2R,5R)-2-(((R)-3-(methoxymethyl)morpholino)methyl)-5-methylpiperazin-1-yl)ethan-1-one]	13	0.55	1.1
C[C@@H]1CN(CC(=O)N2c3cc(Cc4ccc(F)cc4)c(CO)nc3OC[C@@H]2C)[C@@H](CN2CCOC[C@H]2C(F)F)CN1 [Compound 55]	34	1.3	1.9
C[C@@H]1CN(CC(=O)N2c3cc(Cc4ccc(F)cc4)cnc3OC[C@@H]2c2ccccc2)[C@@H](CN2[C@H](C)COC[C@H]2C)CN1 [Compound 44]	20	0.36	0.93

Results, then the compound that gave them:

IC50 [1] [nM]	IC50 [2] [nM]	IC50 [3] [nM]	Structure (SMILES)
6.9	0.17	0.28	C[C@@H]1CN(CC(=O)N2c3cc(Cc4ccc(F)cc4)c(N)nc3OC[C@@H]2C)[C@@H](CN2[C@H](C)COC[C@H]2C)CN1 [Compound 115, 1-((S)-6-amino-7-(4-fluorobenzyl)-2-methyl-2,3-dihydro-1H-pyrido[2,3-b][1,4]oxazin-1-yl)-2-((2R,5R)-2-(((3R,5R)-3,5-dimethylmorpholino)methyl)-5-methylpiperazin-1-yl)ethan-1-one]
4.4	0.23	0.41	C[C@@H]1CN(CC(=O)N2c3cc(Cc4ccc(F)cc4)c(OCCO)nc3OC[C@@H]2C)[C@@H](CN2[C@H](C)COC[C@H]2C)CN1 [Compound 107]
2.9	0.18	0.42	C[C@@H]1CN(CC(=O)N2c3cc(Cc4ccc(F)cc4)c(O)nc3OC[C@@H]2C)[C@@H](CN2[C@H](C)COC[C@H]2C)CN1 [Example 81]
4.6	0.34	0.63	C[C@@H]1CN(CC(=O)N2c3cc(Cc4ccc(F)cc4)c(NCC(F)(F)F)nc3OC[C@@H]2C)[C@@H](CN2[C@H](C)COC[C@H]2C)CN1 [Compound 112, 2-((2R,5R)-2-(((3R,5R)-3,5-dimethylmorpholino)methyl)-5-methylpiperazin-1-yl)-1-((S)-7-(4-fluorobenzyl)-2-methyl-6-((2,2,2-trifluoroethyl)amino)-2,3-dihydro-1H-pyrido[2,3-b][1,4]oxazin-1-yl)ethan-1-one]
5.4	0.25	0.36	C[C@@H]1CN(CC(=O)N2c3cc(Cc4ccc(F)cc4)c(-c4ccc(F)cc4)nc3OC[C@@H]2C)[C@@H](CN2[C@H](C)COC[C@H]2C)CN1 [Compound 113]
7.7	0.16	0.57	COCCNc1nc2c(cc1Cc1ccc(F)cc1)N(C(=O)CN1C[C@@H](C)NC[C@@H]1CN1[C@H](C)COC[C@H]1C)[C@@H](C)CO2 [Compound 108]
11	0.25	0.51	C[C@@H]1CN(CC(=O)N2c3cc(Cc4ccc(F)cc4)c(C(=O)N4CC(O)C4)nc3OC[C@@H]2C)[C@@H](CN2[C@H](C)COC[C@H]2C)CN1 [Example 74, 2-((2R,5R)-2-(((3R,5R)-3,5-dimethylmorpholino)methyl)-5-methylpiperazin-1-yl)-1-((S)-7-(4-fluorobenzyl)-6-(3-hydroxyazetidine-1-carbonyl)-2-methyl-2,3-dihydro-1H-pyrido[2,3-b][1,4]oxazin-1-yl)ethan-1-one]
